Data: patent US5444042A, “Method of treatment of neurodegeneration with calpain inhibitors” (Cortex Pharmaceuticals, priority 1994, dated 1995)
Where a SMILES comes first, the peptide text is derived from it. [ ]: non-standard residue; d: D form. The star is where a group is joined. Nle = CCCC[C@H](N)C(=O)O; Cbz = O=C(OCc1ccccc1)*; CH2Cl = ClC*

Key:
[1] = test system: Calpain in crude brain extracts; test: Ca2+-stimulated spectrin proteolysis in crude brain extracts (Example 2); type: biochemical; details: for inhibition of spectrin proteolysis in crude brain extracts: 100 μM
In short: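 Brain tissue was homogenized in 10 mM Tris pH 7.4, 0.32 M sucrose, 1 mM EGTA and 1 mM DTT, and nuclei and debris were removed. Calpain activity was scored as Ca^2+-stimulated proteolysis of endogenous spectrin.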

Calpain within platelets = test: Platelet membrane permeation assay, spectrin proteolysis (Examples 4A, 4B); type: cell-based, rat; details: 100 μM, A23187 1 μM
In short: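 Rat (Sprague-Dawley) platelets at 10^7 cells/ml in HEPES buffer pH 7.4, preincubated 5 min with inhibitor, then 5 min with 1 μM A23187 to activate calpain. Spectrin proteolysis assessed by SDS-PAGE and anti-spectrin immunoblot, quantified by densitometry.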

Calpain I [2] = biological target: T1, Calpain I (Homo sapiens, UniProt P07384); test: Kapp/[I] progress curve method, human Calpain I (Table 1C); type: biochemical; details: Suc-leu-tyr-amidomethylcoumarin
T1 sequence (P07384 1-714): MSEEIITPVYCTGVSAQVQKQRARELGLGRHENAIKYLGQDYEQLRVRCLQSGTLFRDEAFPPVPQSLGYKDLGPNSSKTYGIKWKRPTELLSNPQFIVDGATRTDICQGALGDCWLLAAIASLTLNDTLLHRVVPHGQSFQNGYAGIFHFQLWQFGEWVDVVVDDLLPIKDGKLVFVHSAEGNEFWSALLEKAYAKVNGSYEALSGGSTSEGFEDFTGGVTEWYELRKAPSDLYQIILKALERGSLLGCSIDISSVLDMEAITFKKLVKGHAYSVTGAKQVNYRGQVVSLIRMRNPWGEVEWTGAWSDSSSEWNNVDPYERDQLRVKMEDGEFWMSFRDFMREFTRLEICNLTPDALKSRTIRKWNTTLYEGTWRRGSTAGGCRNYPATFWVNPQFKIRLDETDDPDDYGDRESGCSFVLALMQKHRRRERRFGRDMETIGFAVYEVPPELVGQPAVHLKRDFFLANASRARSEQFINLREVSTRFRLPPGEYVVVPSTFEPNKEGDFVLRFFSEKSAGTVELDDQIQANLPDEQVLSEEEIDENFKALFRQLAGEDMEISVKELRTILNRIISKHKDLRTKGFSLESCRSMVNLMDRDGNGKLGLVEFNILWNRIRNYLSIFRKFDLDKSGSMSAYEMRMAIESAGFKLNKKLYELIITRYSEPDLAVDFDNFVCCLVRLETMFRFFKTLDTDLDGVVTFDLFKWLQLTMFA
T1 sequence (P04632 1-268 partner): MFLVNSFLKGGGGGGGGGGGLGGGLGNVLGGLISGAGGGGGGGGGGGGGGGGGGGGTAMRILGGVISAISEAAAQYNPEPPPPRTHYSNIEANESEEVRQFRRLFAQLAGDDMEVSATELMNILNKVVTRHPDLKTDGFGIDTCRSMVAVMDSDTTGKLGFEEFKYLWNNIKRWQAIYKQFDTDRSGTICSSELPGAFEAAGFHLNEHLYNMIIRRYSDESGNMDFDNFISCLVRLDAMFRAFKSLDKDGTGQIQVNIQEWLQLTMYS
Procedure: (§1) The Halo-Ketone Peptides, like the substituted isocoumarins, are irreversible inhibitors of Calpain. We determined the Kapp /[I] values for various members of this class of compounds against Calpains I and II. For comparison, we also determined these values against the additional thiol proteases Papain and Cathepsin B for at least one Halo-Ketone Peptide.
(§2) We assayed Calpain I and II using Suc-leu-tyr-amidomethylcoumarin. Papain was assayed using benzoyl-arg-4-nitroanilide, and Cathepsin B (bovine) was assayed using CBZ-lys-4-nitrophenyl ester. We followed the progress curve method of Tian and Tsou, Biochemistry, 21:1028-1032 (1982), the disclosure of which is hereby incorporated by reference, to derive kinetic data. Briefly, this method makes use of the equation: [formula] where [P.infin. ] represents the concentration of product formed at a time approaching infinity, A is the Kapp in the presence of substrate (S), K is the Michaelis constant and [Y] is the concentration of the inhibitor. Since [S] and [Y] are known and V and K can be determined, Kapp can be readily determined.

Calpain II = test: Kapp/[I] progress curve method, Calpain II (Table 1C); type: biochemical; parameters: unit not given here; details: Rabbit Calpain II, Suc-leu-tyr-amidomethylcoumarin
Procedure: as §1, §2

[3] = test system: rats injected with kainic acid; test: Kainate-induced behavioral symptoms and convulsions (Example 8A); type: in vivo, rat; details: 12 mg/kg kainic acid i.p., 4.6 mg calpain inhibitor in DMSO i.p., observed six hours
Procedure: Rats (male Sprague-Dawley, 200±5 gms) were injected intraperitoneally with 12 mg/kg kainic acid in saline vehicle and ether 2001 μl DMSO (dimethylsulfoxide) or 4.6 mg calpain inhibitor dissolved in the same volume of DMSO.

hippocampal slices [4] = test: Hippocampal slice evoked potential recovery after anoxia (Example 7B); type: cell-based, rat
Procedure: As in Example 7A, hippocampal slices (400 μm) were prepared from Sprague Dawley rats (6-7 weeks) and maintained in an interface chamber at 35° C. using conventional techniques, i.e. the lower surface of the slice received a constant perfusion (0.5 ml/min) of an artificial cerebrospinal fluid (ACSF), while the upper surface was exposed to a moist atmosphere of O2 :CO2 (95%:5%) exchanged at a rate of 2 L/min. The ACSF medium contains (in mM): NaCl (124), KCl (3), KHPO4 (1.25), MgSO4 (2.5), CaCl2 (3.4), NaHCO3 (26) and D-Glucose (10). Field excitatory post-synaptic responses were recorded from stratum radiatum of CA1b in response to stimulation of Schaffer-commissural fibers in CA1a or CA1c. The depth of the recording electrode was optimized and evoked responses were collected at a rate of one evoked response every 30 seconds.
After establishing a stable baseline of evoked responses (approximately 10 minutes), ACSF containing Calpain Inhibitor was washed into the chamber and slices were incubated for a period of one hour. After incubation, evoked responses were again recorded and the change in the amplitude of the responses from baseline levels was noted. No effect of the inhibitors tested on baseline evoked responses was observed.
For anoxia experiments, incubation in the drug-containing medium was followed by replacement of the O2 :CO2 (95%:5%) atmosphere with N2 :CO2 (95%:5%). Slices were exposed to this anoxic environment until disappearance of the pre-synaptic fiber volley and for two minutes (severe anoxia) longer (total time in anoxic environment approximately 7-8 minutes in control case). Effects of Calpain Inhibitors on the functional recovery of the slices after the anoxic episode were then measured. Recovery of the evoked potential (EPSP) slope and amplitude by the drug treated slices can be compared to control slices to determine the relative efficacy of various Calpain Inhibitors.

N18-RE-105 cells = test: Glutamate-induced cell death, MTT conversion (Example 5); type: cell-based; details: 5 mM glutamate, inhibitor 3 μg/ml, 19 hours
Procedure: Stock cultures of N18-RE-105 cells were maintained in Dulbecco's modified Eagle's medium (DMEM) containing 10% fetal bovine serum (FBS) and supplemented with hypoxanthine, aminopterin and thymidine (HAT). Subconfluent cultures were split and plated into 96-well plates. Twenty-four hours after plating the cells were exposed to fresh media containing glutamate and various concentrations of Calpain inhibitors. Control cells were not treated with glutamate. Conversion of MTT was measured 19 hours later as described. Nineteen hours after the onset of exposure, cell viability was quantitated by measuring the extent to which the cells convert 3(4,5-dimethylthiazol-2-yl)-2-5-diphenyltetrazolium bromide (MTT) to a blue formazan product, which occurs in the mitochondria of living but not dead cells (Pauwels et al., 1988). A higher absorbance is indicative of greater cell viability.

hippocampal slices [5] = test: Hippocampal slice survival after 10 min anoxia (Example 7A); type: cell-based, rat
Procedure: Hippocampal slices (400 um) were prepared from Sprague Dawley rats (6 to 7 weeks) and maintained in an interface chamber at 35° C. using conventional techniques, i.e., the lower surface of the slice received a constant perfusion (0.5 ml/min) of ACSF, while the upper surface was exposed to a moist atmosphere of O2 :CO2 (95%:5%) exchanged at a rate of 2 L/min. The ACSF medium contains (in mM): NaCl (124), KCl (3), KHPO4 (2.5), CaCl (3.4), NaHCO3 (26) and D-Glucose (10). Field excitatory post-synaptic responses were recorded from stratum radiatum of CAlb in response to stimulation of Schaffer-commissural fibers in CAla or CAlc. The depth of the recording electrode was optimized and evoked responses were collected at a rate of one evoked response every 30 seconds.
For the initial screening procedure, 14 to 16 slices are harvested from the hippocampus of a single rat and placed in a common ACSF bath. Each slice is tested in sequence to determine the magnitude of its pre-anoxic evoked response. Five stimulation pulses (each 0.1 ms (millisecond) in duration) were presented over a 15 second interval. The largest evoked response was noted and recorded for each slice.
After the one hour drug incubation period, the oxygen-enriched atmosphere of the chamber was made anoxic by substituting nitrogen for oxygen (N2 =95%; CO^2 =5%). The slices were retained in this anoxic environment for 10 minutes, following which the oxygen-enriched atmosphere (O^2 =95%; CO2 =5%) was reestablished.
The slices were given the opportunity to recover for 30 minutes following reoxygenation whereupon each was stimulated and the maximum evoked potential determined, as described above during the pre-anoxia period. Those slices which, after anoxia, produced a maximum evoked potential of greater than 50% of that observed prior to anoxia were defined as surviving slices.

Calpain I [6] = biological target: Calpain I (Rattus norvegicus, UniProt P97571); test: Kapp/[I] progress curve method, rat Calpain I (Table 1C); type: biochemical; details: Suc-leu-tyr-amidomethylcoumarin
Chain of Calpain I (Rattus norvegicus, UniProt P97571) (P97571 whole entry): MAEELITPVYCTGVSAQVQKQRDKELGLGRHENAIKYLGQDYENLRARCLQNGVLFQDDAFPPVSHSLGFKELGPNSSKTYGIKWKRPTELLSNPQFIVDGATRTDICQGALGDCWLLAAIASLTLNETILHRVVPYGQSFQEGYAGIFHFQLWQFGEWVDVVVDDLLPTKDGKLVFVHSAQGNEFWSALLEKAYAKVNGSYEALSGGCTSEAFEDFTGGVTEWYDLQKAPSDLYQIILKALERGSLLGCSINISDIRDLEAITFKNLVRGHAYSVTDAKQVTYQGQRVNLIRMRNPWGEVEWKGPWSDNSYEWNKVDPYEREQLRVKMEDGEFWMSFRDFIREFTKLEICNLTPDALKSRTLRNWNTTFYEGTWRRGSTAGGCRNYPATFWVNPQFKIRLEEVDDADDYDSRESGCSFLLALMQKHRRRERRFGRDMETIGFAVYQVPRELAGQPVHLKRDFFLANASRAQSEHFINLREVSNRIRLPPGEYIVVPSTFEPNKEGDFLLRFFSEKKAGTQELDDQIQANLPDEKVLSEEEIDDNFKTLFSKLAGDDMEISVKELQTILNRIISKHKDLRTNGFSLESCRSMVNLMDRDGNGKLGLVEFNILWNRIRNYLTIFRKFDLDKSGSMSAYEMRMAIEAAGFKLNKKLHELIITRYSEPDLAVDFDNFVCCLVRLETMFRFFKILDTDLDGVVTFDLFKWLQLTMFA
Chain of Calpain I (Rattus norvegicus, UniProt P97571) (Q64537 whole entry partner): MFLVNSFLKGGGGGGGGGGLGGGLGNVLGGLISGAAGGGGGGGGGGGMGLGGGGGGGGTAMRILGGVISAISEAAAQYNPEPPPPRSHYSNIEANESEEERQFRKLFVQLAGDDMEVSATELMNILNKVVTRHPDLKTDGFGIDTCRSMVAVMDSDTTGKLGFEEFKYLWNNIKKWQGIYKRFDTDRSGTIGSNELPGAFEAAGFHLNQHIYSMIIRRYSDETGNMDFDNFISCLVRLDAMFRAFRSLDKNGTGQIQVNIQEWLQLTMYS
Procedure: as §1, §2

Compound	inhibition of spectrin proteolysis in crude brain extracts [1]	inhibition of Calpain within platelets (Calpain within platelets)	Kapp/[I] CI (Calpain I [2])	Kapp/[I] CII (Calpain II)	inhibition in the system of Example 2 ([1]; concentration not given)	kainate-induced behavioral symptoms and convulsions (FIG. 7) [3]	% Recovery of synaptic transmission after anoxia (hippocampal slices [4]; Concentration 200, ten minutes anoxia) [%]	period of anoxia required to produce fiber volley disappearance (FIG. 6) (hippocampal slices [4]; hippocampal slices)	blue formazan product relative to control without glutamate (N18-RE-105 cells)	protection of slices from anoxia (FIG. 3) (hippocampal slices [5]; 10 minutes anoxic atmosphere)	Survival of slices after ten minutes anoxia (hippocampal slices [5]; Dose 200 μM, incubation 2 hours) [%]	Kapp/[I] CI (Calpain I [6])
CC(C)CC(NC(=O)OCc1ccccc1)C(=O)NC(Cc1ccccc1)C(=O)CCl (stereo not drawn) [Z-Leu-Phe-CH2 Cl] (Cbz-Leu-Phe-CH2Cl; configuration not given here)	significant inhibition	significant inhibition	225000	585000	–	–	–	–	–	–	–	–
CCCC[C@@H](C=O)NC(=O)[C@H](CC(C)C)NC(=O)[C@H](CC(C)C)NC(C)=O [CI1, Ac-Leu-Leu-Nle-H, reference compound] (Ac-Leu-Leu-[Nle]-aldehyde)	–	–	–	–	showed inhibition	incidence and severity of convulsions was reduced	35	does not significantly lengthen the period of anoxia required to suppress electrical activity	protect N18-RE-105 cells against glutamate toxicity	protected from the effects of anoxia	53	–
CC(C)C[C@H](NC(=O)CNC(=O)OCc1ccccc1)C(=O)N[C@@H](Cc1ccccc1)C(=O)CCl [Z-Gly-Leu-Phe-CH2 Cl, reference compound] (HELM PEPTIDE1{[O=C(OCc1ccccc1)[*:2]].G.L.F.[ClC[*:1]]}$$$$V2.0)	significant inhibition	significant inhibition	–	946000	–	–	–	–	–	–	–	284000
CC(=O)N[C@@H](CC(C)C)C(=O)N[C@@H](Cc1ccccc1)C(=O)CCl [Ac-Leu-Phe-CH2 Cl] (HELM PEPTIDE1{[ac].L.F.[ClC[*:1]]}$$$$V2.0)	significant inhibition	significant inhibition	–	33400	–	–	–	–	–	–	–	25900
